How the values were obtained:
[1] = leakage from liposomes at 37°C in DMEM-GG-FCS; type: physicochemical
Method: The release of liposome contents as a function of time was assessed by centrifugal elution of free ddCTP through Centrifree filters (Amicon, Danvers, Mass., USA). Typically, 100 microliters of suspension was centrifuged at 1500 G for about 10 minutes, 100 microliters additional phosphate-buffered saline was added, and the filter was again spun for about 10 minutes. Pooled filtrate was counted for ³H-ddCTP to determine released drug, and the filter itself was similarly counted to establish the mass balance. Very little ¹⁴C-cholesteryl oleate was ever found in the filtrate, indicating that liposomal lipid was not passing through the filter. […] Leakage tests were also conducted under conditions mimicking those of the viral experiments infra, i.e., in tissue culture plates with 96 flat-bottom wells (Costar, Cambridge, Mass., USA) at 37°C in a CO₂ incubator in Dulbecco's Minimal Eagles Medium supplemented with gentamycin, glutamine, and 10% fetal calf serum (DMEM-GG-FCS). […] In contrast, 50% of the ddC was released within 1 hour, and 95% within 4 hours.

in vitro [2] = type: in vitro ADME
Method: When the same incubations were done in the absence of monocytes, the results were essentially identical.
Studies were conducted under conditions mimicking those of anti-viral tests. ddCMP: dideoxycytidine monophosphate. Data points represent integrals under HPLC peaks from gradient elution on a VYDAC nucleotide column.

[3] = leakage from liposomes at 4°C; type: physicochemical; conditions: liposomes of Example 1 or similar liposomes
adherent human monocytes = test: uptake of dideoxynucleotides; type: cell-based; conditions: 37°C, drug 1 uM
Method: Uptake of ₃H-deoxyctidine triphosphate (³H-dCTP) was used as an indicator of the uptake of vesicle contents by cells. Uptake experiments were done by plating 5 × 10⁶ monocytes in each well of a 6-well microtiter plate (Costar) and adding reagents one or two days later. Incubations were done in DMEM-GG-FCS at 37°C. The rate of increase of dCTP content in the cells over a 9-hour period (Table 7) averaged 0.29 pmole/million cells/hr with liposomes containing 4 mM EPC. Other experiments established that ddCTP and ddCMP are not readily taken up by the cells (Table 9).

monocytes [4] = test: production of prostaglandin E2 by monocytes; type: cell-based, Human; conditions: effect on monocyte function
Method: (§1) Human peripheral blood mononuclear cells were obtained by standard procedures employing continuous flow cell separation (leukapheresis), such as described in Wahl, et al., Cellular Immunol. 85:373-383 (1984). The preparation was diluted in phosphate-buffered saline and layered onto gradients of Ficoll-Paque (Pharmacia-PL Biochemicals, Piscataway, N.J., USA). After centrifugation, mononuclear cells were pipetted from the interface, washed, and suspended in DMEM-GG-FCS. They were then fractionated by countercurrent centrifugal elutriation. The procedure comprises the Beckman elutriation system including a J-21 Beckman Centrifuge, a JE-6 elutriator rotor, a stroboscope, and a Masterflex pump and pumphead. The cells were loaded into the rotor and fractionated by elution at increasing flow rates. Fractions 7 and 8, highly enriched for monocytes, were pooled for use.

in vitro [5] = type: in vitro ADME; conditions: serum-containing medium with cells
[6] = trypan blue exclusion test; type: cell-based; conditions: human, 8.e6 and u.1 cells; at all doses; read-out: viable cells (trypan blue exclusion)
From the text: Tritiated thymidine uptake was used to assess toxic effects of ddCTP liposomes on the lymphoid (8.E6) and promonocytic (U.1) clones. […] As judged by trypan blue exclusion test, the cells remained more than 90% viable at all doses.

monocytes [7] = test: percent lysis of Candida albicans by monocytes; type: cell-based, Human; conditions: effect on monocyte function
Method: as §1

[8] = molecular target: T1, HIV reverse transcriptase (Human immunodeficiency virus type 1 group M subtype B, UniProt P03367); test: reverse transcriptase assay on supernatant of chronically HIV-producing cells; type: cell-based; conditions: for activity at 10 µg/mL: dose 10.0 micrograms/ml; for activity at 0.01 µg/mL: dose 0.01 micrograms/ml; for activity at 0.1 µg/mL: dose 0.1 micrograms/ml; for activity at 1 µg/mL: dose 1.0 micrograms/ml
T1 construct: endogenous in cells; host or cells: U.1 (clone of promonocytic U937) and 8.E6 (clone of lymphoid A.301), chronically HIV-producing
Method: Liposomes were tested for toxic effect on two types of cells which chronically produce HIV. One clone (8.E6) was derived from the lymphoid cell line A.301; the other clone (U.1) was derived from the promonocytic line U937. Cells (1×10⁶/well) in RPMI medium with 10% fetal calf serum were pipetted into a flat-bottom 96-well microtiter plate. To each well was added 50 microliters of solution containing ddCTP-liposomes, empty liposomes, free ddCTP or phosphate buffered saline. Fifty microliters of phorbol myristyl acetate (PMA) was then added to each well to a final concentration of 10⁻⁹ M for stimulation, or else 50 microliters of saline was added for non-stimulated configurations. The plates were incubated at 37°C in 7% CO₂ for about 48 hours. 100 microliters of supernatant was then taken from each well to analyze for reverse transcriptase (RT) activity using polyadenylate and oligo-deoxythymidine. To perform the RT assay, 10 microliters of supernatant containing RT was added to a cocktail containing poly A, oligo dT (Pharmacia, Inc. Piscataway, N.J., USA) MgCl₂, and ³²P-dTTP (Amersham) and incubated for 2 hours at 37°C. Ten microliters of the cocktail was then spotted onto DE81 paper, dried, and washed in 1X saline sodium citrate buffer. The paper was then dried, cut and counted on a Beckman LS 7000 scintillation counter.

[9] = PMA-stimulated (1 nM) U.1 cells, normalized by average of empty liposome controls
[10] = U.1 cells, no PMA, relative to controls with no drug

For Nc1ccn([C@H]2CC[C@@H](COP(=O)(O)OP(=O)(O)OP(=O)(O)O)O2)c(=O)n1 [ddCTP, 2ʹ,3ʹ-dideoxycytidine-5ʹ-triphosphate], the “% of total drug in liposomes” value ([1]; absence of cells, 0 h) was 85.6%, the “% of total drug in liposomes” value ([1]; absence of cells, 0.16 h) was 74.3% and the “% of total drug in liposomes” value ([1]; absence of cells, 0.32 h) was 78.5%. The “% of total drug in liposomes” value ([1]; absence of cells, 1 h) was 77.2%, the “% of total drug in liposomes” value ([1]; absence of cells, 2 h) was 82.1% and the “% of total drug in liposomes” value ([1]; absence of cells, 4 h) was 78.5%. The “% of total drug in liposomes” value ([1]; absence of cells, 24 h) was 81.7%, the “% of total drug in liposomes” value ([1]; absence of cells, 48 h) was 75.7% and the “% of total drug in liposomes” value ([1]; absence of cells, 72 h) was 87.4%. For the same molecule, the leakage from liposomes ([1]; over a period of 72 hours, presence or absence of adherent monocytes) was “Very little leakage”, the “% of total drug in liposomes” value ([1]; with adherent human monocytes, 0 h) was 84.4% and the “% of total drug in liposomes” value ([1]; with adherent human monocytes, 0.16 h) was 83.8%. The “% of total drug in liposomes” value ([1]; with adherent human monocytes, 0.32 h) was 84.4%, the “% of total drug in liposomes” value ([1]; with adherent human monocytes, 1 h) was 78.0% and the “% of total drug in liposomes” value ([1]; with adherent human monocytes, 2 h) was 83.3%. For the same molecule, the “% of total drug in liposomes” value ([1]; with adherent human monocytes, 4 h) was 82.9%, the “% of total drug in liposomes” value ([1]; with adherent human monocytes, 24 h) was 75.9% and the “% of total drug in liposomes” value ([1]; with adherent human monocytes, 48 h) was 68.0%. The “% of total drug in liposomes” value ([1]; with adherent human monocytes, 72 h) was 78.4%, the “conversion to ddCMP” value (in vitro [2]) was “largely converted to ddCMP” and the “fraction present as ddC” value (in vitro [2]) was 23%. For the same molecule, the “Percent of total drug 3H as ddCTP” value (in vitro [2]; 10% fetal calf serum medium, 0.5 h) was 39.6%, the “Percent of total drug 3H as ddCTP” value (in vitro [2]; serum-containing medium with cells, 4 h) was 1.4% and the “Percent of total drug 3H as ddCTP” value (in vitro [2]; serum-containing medium with cells, 6 h) was 1.4%. For the same molecule, the “Percent of total drug 3H as ddCTP” value (in vitro [2]; serum-containing medium without cells, 0.75 h) was 20.3%, the “Percent of total drug 3H as ddCTP” value (in vitro [2]; serum-containing medium without cells, 1.5 h) was 19.5% and the “Percent of total drug 3H as ddCTP” value (in vitro [2]; serum-containing medium without cells, 4 h) was 2.7%. The “Percent of total drug 3H as ddCTP” value (in vitro [2]; serum-containing medium without cells, 6 h) was 0.6%, the remaining at 72 h (in vitro [2]; serum-containing medium without cells, Percent of total drug 3H as ddCTP) was 0% and the “t1/2 for leakage from liposomes” value [3] was over 60 h. For the same molecule, the “pmole drug/1 million cells (mean)” value (adherent human monocytes; 0. h) was 0.15 pmole drug/1 million cells, the “pmole drug/1 million cells (mean)” value (adherent human monocytes; 0.33 h) was 0.09 pmole drug/1 million cells and the “pmole drug/1 million cells (mean)” value (adherent human monocytes; 1.00 h) was 0.09 pmole drug/1 million cells. For the same molecule, the “pmole drug/1 million cells (mean)” value (adherent human monocytes; 3.00 h) was 0.11 pmole drug/1 million cells, the “pmole drug/1 million cells (mean)” value (adherent human monocytes; 6.00 h) was 0.33 pmole drug/1 million cells and the “pmole drug/1 million cells (mean)” value (adherent human monocytes; 9.00 h) was 0.43 pmole drug/1 million cells. For the same molecule, the “pmole drug/1 million cells (mean)” value (adherent human monocytes; 20.00 h) was 0.66 pmole drug/1 million cells, the “production of prostaglandin E2” value (monocytes [4]) was “No consistent effects” and the “Percent of total drug 3H as ddCTP” value (in vitro [5]; 0.5 h) was 67.8%. The remaining at 72 h (in vitro [5]; Percent of total drug 3H as ddCTP) was 0%, the viability [6] was over 90% and the “percent lysis of Candida albicans” value (monocytes [7]) was “No consistent effects”. The activity at 10 µg/mL ([8]; 48 h, U.1 cells, no PMA, relative to controls with no drug) was 69 ± 21%, the activity at 0.01 µg/mL [8, 9] was 84% and the activity at 0.1 µg/mL [8, 9] was 96%. For the same molecule, the activity at 1 µg/mL [8, 9] was 75%, the activity at 10 µg/mL [8, 9] was 75% and the activity at 0.01 µg/mL [8, 10] was 67 ± 19%. It also gave an activity at 0.1 µg/mL [8, 10] of 80 ± 12% and an activity at 1 µg/mL [8, 10] of 61 ± 4%.
